Drawing on patent US20070166777A1, “Methods for detecting lp-pla2 activity and inhibition of lp-pla2 activity” (priority 2004, published 2007), this text covers peak plasma level for 1 compound.

This series is described as follows: Pharmacokinetics in clinical studies, plasma level. As to conditions: human subjects, administered in vivo in clinical studies.

`CCN(CC)CCN(Cc1ccc(-c2ccc(C(F)(F)F)cc2)cc1)C(=O)Cn1c(SCc2ccc(F)cc2)nc(=O)c2c1CCC2` [Formula II, -(N-(2-(Diethylamino)ethyl)-N-(4-(4-trifluoromethylphenyl)benzyl)-aminocarbonylmethyl)-2-(4-fluorobenzyl)thio-5,6-trimethylenepyrimidin-4-one bitartrate] came in with a peak plasma level of 90 ng/mL.
